Test results: paper PMC12673148, “Structural basis of protease-activated receptor 2 activation and biased agonism” (Cell Discovery, 2025)
Like-named read-outs stand apart in the source and are kept apart here. Values belong to the molecule of their own block, whether it stands above or below them.

Experiments:
PAR2 [1] = details: cited from earlier work; for PAR2 activation: synthetic peptides mimicking the TL
From the text: We used the N-terminal deletion construct of PAR2 (Δ1–48) as the backbone of the receptor to support downstream signaling, as it has lower intrinsic activity than the FL receptor does (Supplementary Fig. S1a).

PAR2 [2] = details: cited from earlier work
PAR2 [3] = details: cited from earlier work; remark: listed apart in the source
PAR2 (Gi signaling) = assay: BRET0 assay, Gi sensor, ligand-induced; type: cell-based, human; details: AD293 cells, full-length (FL) PAR2, Fig. S1b
Description: (§1) To measure the self-activation of WT and mutant PAR2 in response to G protein activity, a tricistronic activity sensor assay was performed as previously described. The G protein sensor plasmids were obtained from Addgene (https://addgene.org/Gunnar_Schulte/). To measure constitutive activity, AD293 cells in 6-well plates were cotransfected with 500 ng of WT or mutant PAR2 and 500 ng of the G protein sensor construct (pcDNA-Gα-Nluc/Gβ3/cpVenus-Gγ9 fusion combination) with Lipofectamine 2000 (Invitrogen). After being incubated for 24 h at 37 °C in a 5% CO2 atmosphere, the transfected cells were seeded into white 96-well plates and grown for another 24 h. […] After incubation for 3 min at 37 °C, the BRET ratio was measured twice consecutively to assess constitutive receptor activity using an EnVision multimode plate reader (PerkinElmer). […] The ratio of cpVenus/Nluc intensity was calculated for each well and normalized to that of the vehicle control.
(§2) For ligand-induced BRET0 measurements, transfected cells were plated in 96-well plates for 24 h, after which the cells were washed with HBSS and incubated with a 1:1000 dilution of furimazine stock solution. […] Plates were then subjected to BRET measurements with an EnVision plate reader (PerkinElmer) at 450/40-nm (Nluc-furimazine) and 535/30-nm to detect ligand-induced changes in the BRET signal. […]

PAR2 (Gs signaling) [4] = details: full-length (FL) PAR2; cited from earlier work
From the text: To mimic trypsin cleavage of PAR2 between R36 and S37, we removed residues 2–36 of PAR2 and allowed native methionine aminopeptidase (MAP) to remove the N-terminal methionine residue via a process termed N-terminal methionine processing that occurs naturally across prokaryotes and eukaryotes. We employed a bioluminescence resonance energy transfer (BRET) assay consisting of G protein-based tricistronic activity sensors (BRET0)[17] to quantitatively assess the constitutive activity of GPCR. This approach allowed us to measure the intrinsic activity of the PAR2 constructs. Compared with the ...

PAR2 (G13 signaling) [5] = assay: BRET0 assay, tricistronic G13 sensor, ligand-induced; type: cell-based, human
Description: (§3) To measure the self-activation of WT and mutant PAR2 in response to G protein activity, a tricistronic activity sensor assay was performed as previously described. The G protein sensor plasmids were obtained from Addgene (https://addgene.org/Gunnar_Schulte/). To measure constitutive activity, AD293 cells in 6-well plates were cotransfected with 500 ng of WT or mutant PAR2 and 500 ng of the G protein sensor construct (pcDNA-Gα-Nluc/Gβ3/cpVenus-Gγ9 fusion combination) with Lipofectamine 2000 (Invitrogen). After being incubated for 24 h at 37 °C in a 5% CO2 atmosphere, the transfected cells were seeded into white 96-well plates and grown for another 24 h. The cells were subsequently washed with HBSS and incubated with a 1:1000 dilution of furimazine stock solution. After incubation for 3 min at 37 °C, the BRET ratio was measured twice consecutively to assess constitutive receptor activity using an EnVision multimode plate reader (PerkinElmer). Nluc emission intensity was selected using a 450/40-nm monochromator, and cpVenus^173 emission was selected using a 535/30-nm monochromator with an integration time of 0.3 s in both channels. The ratio of cpVenus/Nluc intensity was calculated for each well and normalized to that of the vehicle control.
(§4) For ligand-induced BRET0 measurements, transfected cells were plated in 96-well plates for 24 h, after which the cells were washed with HBSS and incubated with a 1:1000 dilution of furimazine stock solution. After being incubated for 3 min at 37 °C, the cells were treated with the addition of ligand solutions or vehicle control. Plates were then subjected to BRET measurements with an EnVision plate reader (PerkinElmer) at 450/40-nm (Nluc-furimazine) and 535/30-nm to detect ligand-induced changes in the BRET signal. Like in the BRET2 assay, the BRET signal was calculated by the ratio of the intensity at 535 nm (cpVenus) to that at 450 nm (Nluc), and the Δnet BRET ratio was calculated by subtracting the intensity of the vehicle control from that of each experimental well. […]

PAR2 (Gq signaling) [6] = assay: BRET0 assay, tricistronic Gq sensor, ligand-induced; type: cell-based, human
Description: as §3, §4

PAR2 (Gs signaling) [7] = assay: BRET0 assay, Gs sensor, ligand-induced; type: cell-based, human; details: AD293 cells, full-length (FL) PAR2, Fig. S1b
Description: as §1, §2

PAR2 (Gq signaling) [8] = assay: NanoBiT G protein dissociation assay, Gq; type: cell-based, human; details: mean ± SD
Description: (§5) Ligand-induced G protein activation was measured by a NanoBiT G protein dissociation assay, as described previously[11],[41]. Briefly, AD293 cells cultured in 6-well plates were transfected with plasmids encoding a large fragment (LgBiT)-containing Gαq or Gα13 subunit (100 ng), a small fragment (SmBiT)-fused Gβ1 subunit (500 ng), and the untagged Gγ2 subunit with a C68S mutation (500 ng) in combination with the WT PAR2 construct (200 ng). After being incubated for 1 day, the transfected cells were collected, pelleted by centrifugation, and suspended in HBSS containing 0.01% bovine serum albumin (Solarbio) and 5 mM HEPES (pH 7.4; assay buffer). The cell suspension was dispensed in white 96-well plates at a volume of 80 μL per well and mixed with 20 μL of 50 μM coelenterazine native (BIOSTNTH). After incubation for 2 h at RT, the baseline luminescence was measured, after which 20 μL of test compound (6×) was added, and subsequent luminescence measurements were performed to detect ligand-induced changes. Luminescence intensity measured from 3 min to 5 min after compound addition was normalized to the initial intensity, and the net luminescence was calculated by subtracting the luminescence ratio of the vehicle control from the normalized luminescence per well. The G protein dissociation signals were fitted to a four-parameter sigmoidal concentration–response curve (GraphPad Prism 8).

PAR2 (Gq signaling) [9] = assay: BRET2 Gq dissociation assay; type: cell-based, human
Description: (§6) In accordance with previous methods, AD293 cells were plated in 6-well plates at 700,000–800,000 cells per well. After 1 day of growth at 37 °C with 5% CO2, the cells in each well were transfected with 100 ng of pcDNA3-PAR2 (Δ1–48) WT or mutants, 100 ng of Gα-RLuc8, 100 ng of Gβ, and 100 ng of Gγ-green fluorescent protein (Gγ-GFP) plasmids with Lipofectamine 2000 (Thermo Fisher Scientific). After being incubated for 1 day, the cells were collected, pelleted by centrifugation, and suspended in DMEM supplemented with 5% (v/v) FBS. The cell suspensions were dispensed in white 96-well plates at a density of 25,000–50,000 cells per well. One day after being plated, the growth medium was carefully aspirated and replaced immediately with 60 μL of 1× Hank’s balanced salt solution (HBSS) containing 20 mM HEPES (pH 7.4; assay buffer), followed by the addition of 10 μL of freshly prepared 50 μM coelenterazine 400a (Yeasen). After a 5-min equilibration period, the cells were treated with 30 μL of drug for an additional 5 min. The plates were then measured in an EnVision plate reader (PerkinElmer) with 395 nm (RLuc8-coelenterazine 400a) and 510 nm (GFP2) emission filters with integration times of 1 s. The BRET signal was calculated by the ratio of the luminescence intensity at 510 nm (GFP) to that at 395 nm (RLuc), and the Δnet BRET ratio was calculated by subtracting the luminescence intensity of the vehicle control from that of each experimental well (510 nm/395 nm). The data were subsequently plotted as a four-parameter sigmoidal concentration–response curve in GraphPad Prism 8.

PAR2 (G13 signaling) [10] = assay: BRET2 G13 dissociation assay; type: cell-based, human
Description: as §6

PAR2 (G13 signaling) [11] = assay: NanoBiT G protein dissociation assay, G13; type: cell-based, human; details: mean ± SD
Description: as §5

[12] = AD293 cells, full-length (FL) PAR2, Fig. S1b
[13] = PAR2 D62A, AD293 cells, n = 3, Fig. S5a
[14] = PAR2 (Δ1–48) D62A, AD293 cells, mean ± SD, n = 3, Fig. 5b
[15] = BRET0, AD293 cells, mean ± SD, n = 3, Fig. S5b
[16] = PAR2 (Δ1–48) WT, AD293 cells, mean ± SD, n = 3, Fig. 5g
[17] = summary statement, assay not named (BRET2, BRET0, NanoBiT used)

Molecule: 2-furoyl-LIGRL-NH2
PAR2 activation (PAR2 [1]): activating the receptor independently of protease cleavage

Molecule: 2f-LAAAAI-NH2 [DF253]
PAR2-mediated Ca2+ release (PAR2 [2]): trigger PAR2-mediated Ca^2+ release
ERK1/2 phosphorylation (PAR2 [3]): without inducing ERK1/2 phosphorylation

Molecule: C/C(=N\NC(=O)[C@H]1C(=O)NC[C@@H]1c1ccccc1)c1cccc(Br)c1 [AC264613]
PAR2 agonism (PAR2 [1]; reference not given): potent PAR2-selective agonist

Molecule: CC[C@H](C)[C@H](NC(=O)[C@H](CC1CCCCC1)NC(=O)c1ccno1)C(=O)N1CCC2(C=Cc3ccccc32)CC1 [GB88]
PAR2 agonism (PAR2 [1]): partial PAR2 agonist

Molecule: Isox-Cha-Chg-Chg-A-R-NH2 [AY254]
ERK1/2 phosphorylation (PAR2 [3]): ERK-biased agonist

Molecule: SLAGRL-NH2
efficacy (PAR2 [1]): significantly lower efficacy

Molecule: SLIGKV [SLIGKV (TL), tethered ligand peptide of human PAR2]
Gi signaling activation (PAR2 (Gi signaling)): activated
Gs signaling induction (PAR2 (Gs signaling) [4]): incapable of inducing Gs signaling
G13 signaling activation (PAR2 (G13 signaling) [5]; [12]): activated
Gq signaling activation (PAR2 (Gq signaling) [6]; [12]): activated
Gs signaling activation (PAR2 (Gs signaling) [7]): had no effect on Gs signaling

Molecule: SLIGKV-NH2 [human tethered-ligand synthetic peptide]
PAR2 activation (PAR2 [1]): activating the receptor independently of protease cleavage

G13 receptor activity, D228A mutant (PAR2 (G13 signaling) [10]; PAR2 (Δ1–48) D228A, AD293 cells, mean ± SD, n = 3, Fig. 2c): strongly decreased receptor activity
G13 receptor activity, H227A mutant (PAR2 (G13 signaling) [10]; PAR2 (Δ1–48) H227A, AD293 cells, mean ± SD, n = 3, Fig. S3h): decreased receptor activity
G13 receptor activity, H310A mutant (PAR2 (G13 signaling) [10]; PAR2 (Δ1–48) H310A, AD293 cells, mean ± SD, n = 3, Fig. 2c): strongly decreased receptor activity
G13 receptor activity, L230A mutant (PAR2 (G13 signaling) [10]; PAR2 (Δ1–48) L230A, AD293 cells, mean ± SD, n = 3, Fig. 2c): strongly decreased receptor activity
G13 receptor activity, P231A mutant (PAR2 (G13 signaling) [10]; PAR2 (Δ1–48) P231A, AD293 cells, mean ± SD, n = 3, Fig. 2c): strongly decreased receptor activity
G13 receptor activity, V229A mutant (PAR2 (G13 signaling) [10]; PAR2 (Δ1–48) V229A, AD293 cells, mean ± SD, n = 3, Fig. S3h): decreased receptor activity
G13 receptor activity, Y311A mutant (PAR2 (G13 signaling) [10]; PAR2 (Δ1–48) Y311A, AD293 cells, mean ± SD, n = 3, Fig. 2c): strongly decreased receptor activity
G13 receptor activity, Y323A mutant (PAR2 (G13 signaling) [10]; PAR2 (Δ1–48) Y323A, AD293 cells, mean ± SD, n = 3, Fig. 2c): strongly decreased receptor activity
Molecule: SLIGRL-NH2 [mouse tethered-ligand peptide used as synthetic WT peptide]
Gq versus G13 bias, D62A mutant (PAR2 (Gq signaling) [8]; [13]): clearly biased toward Gq signaling
G13 activity, D62A mutant (PAR2 (G13 signaling) [5]; PAR2 D62A, AD293 cells, mean ± SD, n = 3, Fig. S5a): minimal G13 activity
Gq activity, D62A mutant (PAR2 (Gq signaling) [9]; [14]): only had a minor effect on Gq activity
Gq versus G13 bias, D62A mutant (PAR2 (Gq signaling) [6]; PAR2 D62A, AD293 cells, BRET0, mean ± SD, n = 3, Fig. S5a): clearly biased toward Gq signaling
G13 activity, D62A mutant (PAR2 (G13 signaling) [10]; [14]): almost completely abolished G13 activity
inducing activity versus human ligand SLIGKV-NH2 (PAR2 [1]): much higher inducing activity than the human ligand
PAR2 activation (PAR2 [1]): activating the receptor independently of protease cleavage
G13 activity, D62A mutant (PAR2 (G13 signaling) [11]; [13]): minimal G13 activity

Molecule: SLVGRL-NH2 [synthetic peptide with valine at third TL residue; Gq-biased ligand]
Gq versus G13 bias (PAR2 (Gq signaling) [8]; WT PAR2, AD293 cells, n = 3, Fig. S5b): strong bias toward Gq signaling
G13 activity (PAR2 (G13 signaling) [5]; [15]): minimal G13 activity
Gq activity relative to WT peptide (PAR2 (Gq signaling) [9]; [16]): maintained most of the Gq activity of the WT peptide
Gq signaling (discussion summary) (PAR2 (Gq signaling) [9]; [17]): predominantly activates Gq signaling
Gq versus G13 bias (PAR2 (Gq signaling) [6]; [15]): strong bias toward Gq signaling
G13 activity relative to WT peptide (PAR2 (G13 signaling) [10]; [16]): lost most of the G13 activity
G13 signaling (discussion summary) (PAR2 (G13 signaling) [10]; [17]): minimal effect on G13 signaling
G13 activity (PAR2 (G13 signaling) [11]; NanoBiT, WT PAR2, AD293 cells, n = 3, Fig. S5b): minimal G13 activity

B1: NE: neutrophil elastase, protease cleaving PAR2 between S67↓V68 (protein, UniProt P08246 30-267, looked up)
Neutrophil elastase: IVGGRRARPHAWPFMVSLQLRGGHFCGATLIAPNFVMSAAHCVANVNVRAVRVVLGAHNLSRREPTRQVFAVQRIFENGYDPVNLLNDIVILQLNGSATINANVQVAQLPAQGRRLGNGVQCLAMGWGLLGRNRGIASVLQELNVTVVTSLCRRSNVCTLVRGRQAGVCFGDSGSPLVCNGLIHGIASFVRGGCASGLYPDAFAPVAQFVNWIDSIIQRSEDNPCPHPRDPDPASRTH
Ca2+ release on PAR2 cleavage (PAR2 [2]; cleavage at E56↓T57 (CS) or S67↓V68 (NE)): not Ca^2+ release
ERK1/2 activation on PAR2 cleavage (PAR2 [3]; cleavage at S67↓V68): activates ERK1/2
